Data published in patent publication US4990613A, “(1R,5S,6S)-2-[(6,7-dih ydro-5H-pyrazolo[1,2-a][1,2,4]triazolium-6-yl)]thio-6-[R-1-hydroxyethyl]- 1-methyl-carbapenem-3-carboxylate and intermediate therefor” (Lederle (Japan), Ltd., priority 1987, dated 1991).

Key:
[1] = test system: P. aeruginosa resistant strains; assay: Sensitivity test against clinical isolates, P. aeruginosa resistant strains; type: cell-based; conditions: 54 resistant strains
Experimental: It is noted here that the 54 strains have been chosen because there have been the strains in duplicate with the agents. ______________________________________ Ceftazidime (CAZ) (25 to 100 μg/ml) 21 strains Cefsulodine (CFS) (25 to >100 μg/ml) 23 strains Piperacilin (PIPC) (25 to >100 μg/ml) 15 strains Gentamycin (GM) (25 to >100 μg/ml) 21 strains Amikacin (AMK) (25 to >100 μg/ml) 26 strains Ofloxacin (OFLX) (25 to >100 μg/ml) 4 strains ______________________________________
A minimum inhibitory concentration (MIC) was determined in substantially the same manner as the test procedures II above using the 54 strains of P. aeruginosa having an anti-Pseudomonas resistance.

[2] = test system: C. freundii resistant strains; assay: Sensitivity test against clinical isolates, C. freundii resistant strains; type: cell-based; conditions: CFIX/CTX resistant strains
Experimental: Cefixime (CFIX) (50 to >100 μg/ml)
Cefotaxime (CTX) (50 to >100 μg/ml)
The tests were carried out in the same manner as described above Test 1.

[3] = design: species or system male mice of CrjCD(SD) type; conditions: mouse, in vivo, sc, 500 mg/kg
Experimental: Toxicological studies have been carried out using a group of 10 male mice of CrjCD(SD) type weighing from 20 to 23 grams. A solution containing the carbapenem compound (15) of the present invention obtained by Example 6 was administered subcutaneously to the mice and subjected to observations for one week.

[4] = over a period of ten days
[5] = test system: Swine Kidney Dehydropeptidase-I (DHP-I); assay: Hydrolysis activity against DHP-I enzyme substrate by late assay; type: in vitro ADME; conditions: final substrate concentration 100 μM, 10 minutes, pH 7.1
Experimental: The swine kidney (8 kg) was homogenized and an enzyme protein was allowed to precipitate. After a connective lipid was removed with acetone, the resultant material was made soluble by treatment with butanol and purified in the order by the ammonium sulfate fraction method, thereby producing DPH-I enzyme from a 75% ammonium sulfate fraction.
The DHP-I enzyme was then adjusted to give an enzyme concentration of 25 mg/10 ml (phosphate buffer, pH 7.1), and divided into 1 ml portions. The portions were frozen and stored at -40° C. or less until use.
As control compounds were employed glycyl dehydrophenylalanine (Gl-dh-Ph) and imipenem, and they were adjusted in situ each to give the concentration of 177 μM with the same sodium phosphate buffer solution.
To 1.2 ml of a 50 mM sodium phosphate buffer solution (substrate) containing 177 μM of each of Gh-dh-Ph and imipenem as the control compounds was added 0.2 ml of the DHP-I enzyme solution (25 mg/10 ml) prepared above in the final substrate concentration of 100 μM. The solution was then incubated at […] for 10 minutes. An initial velocity of hydrolysis of the substrate was measured from a decrease in absorbency at a particular λmax of each of the substrates.
A blank test was conducted in substantially the same manner as above by adding 0.2 ml of the sodium phosphate buffer solution (pH 7.1) to 1.2 ml of the above substrate.

In the case of `C[C@@H](O)[C@H]1C(=O)N2C(C(=O)[O-])=C(SC3Cn4cnc[n+]4C3)[C@H](C)[C@H]12` (stereo partly drawn) [Compound 15, 6-[(R)-1-hydroxyethy]-1-methyl-2-(5H-pyrazolo[1,2-a]triazolinium-6-yl) thio-carbapenem-3-carboxylic acid], the “test microorganisms whose growth is inhibited” value ([1]; concentration of 12.5 μg/ml) was “all the test microorganisms”, the “test microorganisms whose growth is inhibited” value ([1]; concentration of […]) was “approximately 98%” and the “test microorganisms whose growth is inhibited” value ([2]; concentration of 0.78 μg/ml) was “approximately 98%”. The “test microorganisms whose growth is inhibited” value ([2]; concentration of 1.56 μg/ml) was “all the test microorganisms” and the “survival and abnormal observations” value [3] was “alive without any abnormal observations”.

For `C[C@@H](O)[C@H]1C(=O)N2C(C(=O)[O-])=C(SC3Cn4cnc[n+]4C3)[C@H](C)[C@H]12` (stereo partly shown) [crystalline form], the “loss of potency on storage” value [4] was “no appreciable loss of potency”.

With `NCC(=O)NC(=Cc1ccccc1)C(=O)O` [Gl-dh-Ph, glycyl dehydrophenylalanine] the “initial velocity of hydrolysis against DHP-I” value [5] was 17.4 µM/min.
